Reference: the NIST ThermoML archive (doi:10.1021/acs.jced.5b00894)
Numbers after ± are expanded uncertainties.

Settings: 88 kPa, Liquid, Vibrating tube method

CCCCn1cc[n+](C)c1.F[B-](F)(F)F [1-butyl-3-methylimidazolium tetrafluoroborate] gave a mass density (298.15 K) of 1202.71 ± 4.2 kg/m3, a mass density (313.15 K) of 1192.29 ± 4.2 kg/m3 and a mass density (333.15 K) of 1178.73 ± 4.2 kg/m3.
CCCCCCCCn1cc[n+](C)c1.O=[N+]([O-])[O-] [1-methyl-3-octylimidazolium nitrate] gave a mass density (298.15 K) of 1063.86 ± 4.1 kg/m3, a mass density (313.15 K) of 1054.55 ± 4.1 kg/m3 and a mass density (333.15 K) of 1042.42 ± 4.1 kg/m3.
Compound CCCCCCn1cc[n+](C)c1.N#C[S-] [1-hexyl-3-methylimidazolium thiocyanate] has a mass density (298.15 K) of 1036.21 ± 4.1 kg/m3, a mass density (313.15 K) of 1027.55 ± 4.1 kg/m3 and a mass density (333.15 K) of 1016.12 ± 4.1 kg/m3.
